Data reported in patent publication US6989263B1, “Method for identifying and using compounds that inactivate HIV-1 and other retroviruses by attacking highly conserved zinc fingers in the viral nucleocapsid protein” (The United States of America as represented by the …, priority 1994, dated 2006).
“Also recorded” adds a separate entry of the source. Where two headings read alike, the source gives them in different places.

Experiments:
[1] = target: T1, p7NC (Human immunodeficiency virus type 1 group M subtype B, UniProt P05888); experiment: HPLC analysis of reaction products of purified p7NC with reagent; format: biochemical, HIV-1; set-up: key to Protein (HPLC): reaction products / Protein (HPLC): reaction rate: formation of non-native, intra-protein disulfide links (designated “Disulfides”); some of the reagents form adducts with the cysteine residues as well (designated “Adducts”); slow: “Slow” reactions are those in which greater than 10% of the p7NC protein remained in its native form after the 10 minute incubation with reagent; very slow: “Very slow” reactions are those in which greater than 50% of the p7NC protein remained in its native form after the 10 minute incubation with reagent; fast: “Fast” reactions result in complete transformation of the p7NC protein to non-native conformations during the 10 minute incubation period; settings: for Protein (HPLC): reaction products / Protein (HPLC): reaction rate: 63 μM p7NC, 6 reagent : 1 protein, 10 minutes
T1 construct: The NC protein of HIV-1 (MN) p7NC was expressed in E. coli; made in house; host or cells: E. coli (vector pMAL-c)
Description: Highly purified retroviral NC proteins can be produced by expression from vectors generated through recombinant DNA technology. These proteins when reconstituted with zinc (see, Summers, et al., Protein Science 1:563–567 (1992) for methods), provide the source of the NC proteins containing the zinc fingers that are the targets for attack by the compounds of this invention. When the zinc fingers in NC proteins react with identified compounds, the reaction produces a covalent change in the NC protein, and the modified protein can be separated from the unreacted protein by, for example, reversed phase HPLC.
Samples of p7NC and apo-p7 were reacted with varying amounts of cupric chloride and resulting products separated by HPLC. The reactions were carried out using 44.3 μM protein (p7NC or apo-p7) in 0.1 M Tris-HCl, pH 7.4, for 6 minutes at room temperature with varying concentrations of CuCl2 to achieve the indicated ratios of reactants, in a final volume of 0.7 ml. Chromatography was carried out on the resulting products at pH 2 (0.05% trifluoroacetic acid) on μBondapak™ C-18 (3.9×300 mm) at 1.0 ml/minute using an acetonitrile gradient (0–17%, 20 ml; 17–20%, 60 ml; 20–60%, 10 ml). Elution positions of unreacted protein (p7NC or apo-p7) are indicated as apo-p7.
A two-fold excess of NOBA was reacted with p7NC, and the products were separated by HPLC (FIG. 10) as described above for Cu^+2 and p7NC. Elution positions for the reactants (NOBA and unreacted p7NC) and products, reacted p7NC, NOBA, HABA and AzoxyBA are indicated and an elution profile is included in FIG. 10. NOBA and AzoxyBA were supplied by Octamer, Inc. (Mill Valley, Calif.) and used as HPLC standards.
The disulfide reagent of choice (each available from the Aldrich Chemical Company (Milwaukee, Wis.)) was incubated for 10 minutes with purified p7NC protein (63 μM) at a ratio of 6 molecules of reagent to 1 molecule of NC protein (there are 6 cysteine thiols per NC protein). The formation of non-native protein conformations was monitored by HPLC as described above. […] Generally, the inactivation proceeds by formation of non-native, intra-protein disulfide links (designated “Disulfides”), but some of the reagents form adducts with the cysteine residues as well (designated “Adducts”). “Slow” reactions are those in which greater than 10% of the p7NC protein remained in its native form after the 10 minute incubation with reagent. “Very slow” reactions are those in which greater than 50% of the p7NC protein remained in its native form after the 10 minute incubation with reagent. “Fast” reactions result in complete transformation of the p7NC protein to non-native conformations during the 10 minute incubation period.

[2] = target: T2, HIV NC protein in intact virus (Human immunodeficiency virus type 1 group M subtype B, UniProt P05888); experiment: Cross-linking of NC protein in intact HIV (non-reducing gel-mobility shift, western blot); format: biochemical, HIV-1; settings: for X-link T-½ (min), HIV NC protein (top number): intact HIV generally 12.5 μM, reagent generally 25 μM; for X-link T-½ (min), HIV NC protein: HIV-1 @ 50 μM
T2 construct: endogenous in cells; host or cells: intact HIV virions
Description: Purified concentrated retrovirus and antisera against the purified NC protein of the virus can be used to test the ability of a specific compound to penetrate the virus and react with the NC protein by forming disulfide complexes in the core of the virus. The compound is mixed with the whole retrovirus under reaction conditions appropriate for the compound. The virus is then removed from the reagent by centrifugation and disrupted in, e.g, standard SDS-PAGE sample buffer with (reduced) and without (non-reduced) 2-mercaptoethanol. The viral proteins are then separated by standard SDS-PAGE and the sample examined for the presence or absence of the monomeric NC protein in the non-reduced sample. Depending upon the virus used in the experiment and the conditions of electrophoresis, the NC protein can be visualized by protein staining methods, or by immuno-blot (e.g., western) methods. Compounds which react with the NC protein by attacking the zinc finger complexes and forming disulfide cross-linked products (i.e., which generate multimers in the mobility shift assay) inactivate the virus. Thus, compounds of interest (i.e., those which cause cross-linking) reduced the amount of monomeric NC protein detected.
In order to determine whether HIV-1MN was inactivated by NOBA, the virus was incubated with varying concentrations of NOBA (3.0, 0.3, 0.03 and 0 mM) as in Table 1. The reaction products were pelleted by centrifugation, and separated by SDS-PAGE under reducing (2% 2-mercaptoethanol, panel A), or non-reducing conditions (panel B). p7NC was visualized by immunoblot analysis using monospecific rabbit antisera to the purified NC proteins as per L. E. Henderson et al., J. Virol. 66:1856 (1992).
Disulfide reagents were further tested for their ability to disrupt NC structure in the virus, based on their ability to cause inter-NC cysteine disulfide bonds (i.e., cross-linking) in the intact virus. The formation of inter-NC cysteine disulfides creates NC multimers, which migrate through a non-reducing gel at a different rate than NC monomers, as described above. Intact HIV virus (generally 12.5 μM) was exposed to the specified reagent (generally 25 μM) for varying lengths of time and electrophoresed through a non-reducing SDS-polyacrylamide gel. HIV NC monomers and multimers were visualized by western blot analysis as described above in Example 3. The approximate time required to cross-link one-half of the NC proteins in the virus at the specified reaction conditions was then determined. […] The top number in the cells of the X-link column in Table 2 refers to the approximate time in minutes required for one-half of the HIV NC proteins to become cross-linked.

[3] = target: T3, p11 Nucleocapsid Protein (p11NC) (Equine infectious anemia virus, UniProt P69732); experiment: Cross-linking of p11NC in intact EIAV particles (gel-mobility shift); format: biochemical; settings: intact EIAV (50 μM), 4× the HIV assay concentrations
T3 construct: a variety of disulfide reagents cross-link the p11NC protein in intact viral particles; endogenous in cells; host or cells: intact EIAV particles
T3 sequence (P69732 360-435): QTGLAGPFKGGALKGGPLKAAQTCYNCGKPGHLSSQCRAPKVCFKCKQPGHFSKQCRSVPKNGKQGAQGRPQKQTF
Description: Essentially the same strategy was employed to analyze the ability of the various disulfide reagents to cross-link the p11 Nucleocapsid Protein (p11NC) in intact Equine Infectious Anemia Virus (EIAV) particles. The advantages of working with EIAV include the fact that it is not a human pathogen, and that the p11NC protein can be visualized by simple coomassie-blue staining after performing the gel-mobility shift assay (rather than by western blotting as for HIV) described above. The reaction conditions were essentially the same for the EIAV assays as for the HIV assays described above, except that the concentration of virus and disulfide reagent was 4× the concentrations used in the HIV assay above. The second number in each cell in the X-link column in Table 2 represents the time required to cross-link one-half of the p11NC protein in the intact viral particles. […] The bottom number in each cell of the X-link column, unless otherwise indicated, represents the concentration of EIAV used in the assay. Blank cells throughout Table 2 indicate that the compound has yet to be tested for the specified property.

[4] = cited from earlier work
[5] = tested on: HIV-1; settings: read-out: TCID (Virus): concentration of reagent required to inactivate half of a standardized number of HIV-1 virus particles; tissue culture infectivity assay
Description: Concomitantly, the drug treated virions are tested for activity. The virions are suspended in media (rather than solubilized) and added to target cells. The cultures are then examined to determine whether the virions are still active.

[6] = target: T4, HIV-1 (MN) p7NC (Human immunodeficiency virus type 1 group M subtype B, UniProt P05888); experiment: Intrinsic Trp-37 fluorescence quenching of p7NC; format: biochemical; settings: for change in intrinsic fluorescence of p7NC on incubation: Trp-37 fluorescence, zinc-reconstituted p7NC
T4 construct: The NC protein of HIV-1 (MN) p7NC was expressed in E. coli; made in house; host or cells: E. coli (vector pMAL-c)
Description: The NC protein of HIV-1 (MN) p7NC was expressed in E. coli. The coding sequence for HIV-1(MN) p7NC was cloned and expressed using an inducible E. coli promoter in the vector pMAL-c (New England Biolabs Inc., Beverly, Mass.). The protein was expressed as a maltose-binding fusion protein and released by proteolysis with Factor Xa. HIV-1(MN) p7NC was purified by HPLC and characterized, including complete amino acid sequence analysis. p7NC was purified by high-pressure liquid chromatography (HPLC) and reconstituted with two equivalents of zinc to generate native protein as described (M. F. Summers et al., Protein Sci. 1, 563 (1992)).
Coordination of Zn^+2 enhances the intrinsic fluorescence of the single tryptophan (Trp-37) in the second zinc finger. […] The initial phase of the reaction with Cu^+2 (T1/2<20 seconds) gave 70% quenching of the original fluorescence, followed by a much slower phase (T1/2 ca. 6 minutes), resulting in a final limiting quenching of 85%.
The first quenching phase was a second order reaction, whereas the second phase was independent of protein concentration or oxidizing species.

Structure (SMILES) | Protein (HPLC): reaction products [1] | cross-linking of the HIV-1 NC protein in intact virus (gel-mobility shift), in words [2] | X-link T-½ (min), HIV NC protein (top number) [2] | X-link T-½ (min), EIAV p11NC (second number) [3] | Protein (HPLC): reaction rate [1] | other results
[O-][n+]1ccccc1SSc1cccc[n+]1[O-] [2,2-Dithiobis(Pyridine N-Oxide)] | Disulfides | caused a cross-linking of the HIV-1 NC protein | <<15 min | <15 min | – | –
O=C(O)c1ccc(SSc2ccc(C(=O)O)cn2)nc1 [6,6-Dithiodinicotinic Acid] | Disulfides; also recorded: Adducts | – | – | – | (slow) (“Slow” reactions are those in which greater than 10% of the p7NC protein remained in its native form after the 10 minute incubation with reagent) | X-link T-½ (min), HIV NC protein [2]: ~60 min
CC(C)N(C(=S)SSC(=S)N(C(C)C)C(C)C)C(C)C [Tetraisopropylthiuram Disulfide] | Disulfides | caused a cross-linking of the HIV-1 NC protein | >15 min | ~15 min | – | –
c1ccc2sc(SSc3nc4ccccc4s3)nc2c1 [2,2 Dithiobis(benzothiazole)] | Disulfides | caused a cross-linking of the HIV-1 NC protein | – | – | – | X-link T-½ (min), HIV NC protein [2]: ~60 min; Toxicity (LD-50, mouse) ([4]; route not given): 7000 mg/kg
CN(C)C(=S)SSC(=S)N(C)C [Tetramethylthiuram Disulfide] | Disulfides | caused a cross-linking of the HIV-1 NC protein | ~30 min | ~15 min | (slow) (“Slow” reactions are those in which greater than 10% of the p7NC protein remained in its native form after the 10 minute incubation with reagent) | Toxicity (LD-50, mouse) ([4]; IP): 70 mg/kg; Toxicity (LD-50, mouse) ([4]; oral): 1350 mg/kg
CCCCN(CCCC)C(=S)SSC(=S)N(CCCC)CCCC [Tetrabutylthiuram Disulfide] | Disulfides; also recorded: Adducts | caused a cross-linking of the HIV-1 NC protein | ~30 min | >60 min | (slow) (“Slow” reactions are those in which greater than 10% of the p7NC protein remained in its native form after the 10 minute incubation with reagent) | Toxicity (LD-50, mouse) ([4]; IP): 2350 mg/kg
c1ccc(SSc2ccccn2)nc1 [Aldrithiol-2] | Disulfides; also recorded: Adducts | caused a cross-linking of the HIV-1 NC protein | ~15 min | ~15 min | (slow) (“Slow” reactions are those in which greater than 10% of the p7NC protein remained in its native form after the 10 minute incubation with reagent) | IC50 [5]: 9 µM
Cl.Cl.N=C(N)SSC(=N)N [Formamidine Disulfide.2HCl] | Disulfides | – | – | – | – | IC50 [5]: 43.5 µM
N#Cc1ccccc1SSc1ccccc1C#N [2,2 Dithiobis(benzonitrile)] | Disulfides; also recorded: Adducts | – | <<15 min | ~15 min | – | –
[Cl][Cu][Cl] [Cu^+2, cupric chloride] | – | – | – | – | – | change in intrinsic fluorescence of p7NC on incubation [6]: rapid biphasic decrease in fluorescence; final limiting quenching ([6]; Zn^+2-coordinated p7NC): 85%; quenching of the original fluorescence, initial phase ([6]; Zn^+2-coordinated p7NC): 70%; total protein recovered in peak B ([1]; 2, 4 or 8 Cu^+2 per p7NC, 44.3 μM protein, 6 minutes, pH 7.4): approximately one half
CC(=O)[O-].CC(=O)[O-].CC(=O)[O-].[Fe+3] [ferric acetate] | – | – | – | – | – | change in intrinsic fluorescence of p7NC on incubation [6]: rapid biphasic decrease in fluorescence
CC(C)n1cc(C(C)(C)C)nc1SSc1nc(C(C)(C)C)cn1C(C)C [2,2-Dithiobis(4-Tert-Butyl-1-Isopropyl)-Imidazole] | Disulfides | – | – | – | – | X-link T-½ (min), HIV NC protein [2]: >>60 min
